The text below walks through data of patent publication US8476309B2, “Benzofuran cannabinoid compounds and related methods of use” (The University of Tennessee Research Foundation, priority 2009, dated 2013).

One may read the EC50 as the concentration that produces a half-maximal response.

Molecules are shown by their SMILES.

The test system of one assay is glioblastoma brain cancer cell line LN-229. Briefly: Cytotoxicity assay (CCK8 viability). The class given is cell-based. The note with it: Homo sapiens, LN-229, 24 h, read-out: EC50 LN-229, 24 hrs, 1% FBS. How it is done:
Cytoxocity assay: Cells are seeded on a 96 well polystyrene plate in full serum media at a density of 75,000 cells per milliliter, 100 μL per well. Plates are incubated at 37° C. and 5% CO2 for 24 hours to allow cell attachment. Drug solutions are prepared in DMSO at 100× concentration and mixed 1:100 in 1% FBS media to yield the desired concentration. Drug-media mixtures are vortexed immediately prior to administration to cells. […] 10 μL of Cell Counting Kit 8 (CCK8, Dojindo# CK04-11) is added to each well to colormetrically assess viability. After 2-4 hours of incubation with the CCK8 dye, absorbance is read at 450 nm by a BioTek Synergy 2 plate reader.
The cytotoxicity of selected compounds against the glioblastoma brain cancer cell line LN-229 is depicted in Table 2.
`CCCCCc1cc(O)c2c(-c3cc(OC)cc(OC)c3)coc2c1` [Compound 55, 3-(3,5-Dimethoxyphenyl)-6-pentylbenzofuran-4-ol]: the EC50 was 10.3 µM.

In the case of `CCCCCc1cc(O)c2c(-c3cc(Cl)cc(Cl)c3)coc2c1` [Compound 58, 3-(3,5-Dichlorophenyl)-6-pentylbenzofuran-4-ol], the EC50 turned out to be 13.6 µM.

As to `CCCCCc1cc(O)c2c(-c3cccc(C)c3)coc2c1` [Compound 51, 6-Pentyl-3-m-tolylbenzofuran-4-ol], the EC50 amounted to 16.4 µM.

The same assay, now with this note: Homo sapiens; LN-229 cells, 24 hrs, 1% FBS media, CCK8 readout; read-out: EC50 LN-229, 24 hrs, 1% FBS.
Take `CCCCCc1cc(O)c2c(-c3cccs3)coc2c1` [Compound 49, 6-Pentyl-3-thiophen-2-yl-benzofuran-4-ol]: the EC50 stood at 68.5 µM.

As for `CCCCCc1cc(O)c2cc(-c3cc(OC)cc(OC)c3)oc2c1` [Compound 56, 2-(3,5-Dimethoxyphenyl)-6-pentylbenzofuran-4-ol], the half-maximal effective concentration (EC50) turned out to be 10.3 µM.

As for `CC(C)(c1cccc(F)c1)c1cc(O)c2c(-c3ccccc3)coc2c1` [Compound 75, 6-(2-(3-Fluorophenyl)propan-2-yl)-3-phenylbenzofuran-4-ol], the EC50 is 6.99 µM.

Take `CCCCCCC(C)(C)c1cc(O)c2c(-c3ccccc3)coc2c1` [Compound 63, 6-(2-Methyloctan-2-yl)-3-phenylbenzofuran-4-ol]: the EC50 worked out at 10.3 µM.

For the compound `CCCCCc1cc(O)c2cc(-c3cccs3)oc2c1` [Compound 50, 6-Pentyl-2-thiophen-2-yl-benzofuran-4-ol], the concentration for a half-maximal effect (EC50) turned out to be 10.1 µM.

As for `CCCCCc1cc(O)c2c(-c3ccccc3)coc2c1` [Compound 52, 6-Pentyl-3-phenylbenzofuran-4-ol], the 50% effective concentration (EC50) was 10.7 µM.

As to `CCCCCc1cc(O)c2cc(-c3cc(Cl)cc(Cl)c3)oc2c1` [Compound 59, 2-(3,5-Dichlorophenyl)-6-pentylbenzofuran-4-ol], the EC50 is 6.12 µM.

Regarding `CCCCCCC(C)(C)c1cc(O)c2c(-c3cc(Cl)cc(Cl)c3)coc2c1` [Compound 62, 3-(3,5-Dichlorophenyl)-6-(2-methyloctan-2-yl)benzofuran-4-ol], the EC50 came out at 11.4 µM.
